Laboratory results: ChEMBL document CHEMBL1201862, “PubChem BioAssay data set” (2004)
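Values below derive from 48-hour exposures of cells grown in 96-well plates, with endpoints linearly interpolated between the two concentrations bracketing the appropriate inhibition level. The concentration for 50% growth inhibition is given as GI50.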 The source made the active and inactive calls. No stated cut-off is given here; in the data, active = GI50 up to about 1.1 µM and inactive = higher.

Assays:
Assay in all cases: NCI-60 cell line screen, 48 h
HCC 2998 = test system: HCC 2998
UACC-62 = test system: UACC-62
MOLT-4 = test system: MOLT-4
HCT-15 = test system: HCT-15
CAKI-1 = test system: CAKI-1
HOP-92 = test system: HOP-92
KM12 = test system: KM12
OVCAR-5 = test system: OVCAR-5
SF-268 = test system: SF-268
SK-MEL-2 = test system: SK-MEL-2
RPMI-8226 = test system: RPMI-8226
SF-295 = test system: SF-295
HOP-62 = test system: HOP-62
UO-31 = test system: UO-31
IGROV-1 = test system: IGROV-1
HT-29 = test system: HT-29
SNB-75 = test system: SNB-75
UACC-257 = test system: UACC-257
A498 = test system: A498
NCI-H460 = test system: NCI-H460

For `N#CCCN(CCC#N)c1ccc(/C=C2\N=C(c3cc([N+](=O)[O-])ccc3Cl)N(S(=O)(=O)c3ccccc3)C2=O)cc1`, the GI50 (HCC 2998) was > 100 µM (inactive), the GI50 (UACC-62) was > 100 µM (inactive) and the GI50 (MOLT-4) was > 100 µM (inactive). The GI50 (HCT-15) was > 100 µM, the GI50 (CAKI-1) was > 100 µM (inactive) and the GI50 (HOP-92) was > 100 µM (inactive). For the same compound, the GI50 (KM12) was > 100 µM (inactive), the GI50 (OVCAR-5) was > 100 µM (inactive) and the GI50 (SF-268) was > 100 µM (inactive). The GI50 (SK-MEL-2) was > 100 µM (inactive), the GI50 (RPMI-8226) was > 100 µM (inactive) and the GI50 (SF-295) was > 100 µM (inactive). The GI50 (HOP-62) was > 100 µM (inactive), the GI50 (UO-31) was > 100 µM (inactive) and the GI50 (IGROV-1) was > 100 µM (inactive).
With `CSc1ncc2c(n1)-c1ccccc1OC2NC1CC1` (stereo not drawn) the GI50 (HT-29) was > 100 µM (inactive), the GI50 (SNB-75) was 59 µM (inactive) and the GI50 (UACC-62) was 25.8 µM (inactive). The GI50 (MOLT-4) was 37.2 µM (inactive), the GI50 (HCT-15) was 40.4 µM and the GI50 (CAKI-1) was 29.6 µM (inactive). For the same compound, the GI50 (HOP-92) was 43.9 µM (inactive), the GI50 (KM12) was 73.5 µM (inactive) and the GI50 (UACC-257) was > 100 µM (inactive). The GI50 (OVCAR-5) was > 100 µM (inactive), the GI50 (SF-268) was 92.7 µM (inactive) and the GI50 (SK-MEL-2) was > 100 µM (inactive). The GI50 (RPMI-8226) was 31.3 µM (inactive), the GI50 (A498) was 13.7 µM (inactive) and the GI50 (SF-295) was > 100 µM (inactive). For the same compound, the GI50 (UO-31) was 33.2 µM (inactive), the GI50 (IGROV-1) was 49 µM (inactive) and the GI50 (NCI-H460) was 81.8 µM (inactive).
`Fc1nc(F)nc(-c2c3ccccc3c3n2CCS3)n1` was tested, and the GI50 (HCC 2998) was > 100 µM (inactive), the GI50 (HT-29) was > 100 µM (inactive) and the GI50 (SNB-75) was 22.8 µM (inactive). For the same compound, the GI50 (MOLT-4) was > 10 µM (inactive), the GI50 (HCT-15) was 54.8 µM and the GI50 (CAKI-1) was > 100 µM (inactive). The GI50 (HOP-92) was 39.4 µM (inactive), the GI50 (KM12) was 47 µM (inactive) and the GI50 (OVCAR-5) was > 100 µM (inactive). For the same compound, the GI50 (SF-268) was 70.5 µM (inactive), the GI50 (SK-MEL-2) was 44.5 µM (inactive) and the GI50 (RPMI-8226) was 33 µM (inactive). The GI50 (A498) was 30.8 µM (inactive), the GI50 (SF-295) was 53.3 µM (inactive) and the GI50 (HOP-62) was 39.7 µM (inactive). The GI50 (UO-31) was 84.5 µM (inactive), the GI50 (IGROV-1) was > 100 µM (inactive) and the GI50 (NCI-H460) was 61.4 µM (inactive).
In the case of `Cc1cc(C)c2c(c1)CC1(Cc3c(C)ccc(C)c3C1=O)C2=O` (stereo not drawn), the GI50 (HCC 2998) is reported as > 100 µM (inactive), the GI50 (SNB-75) is reported as > 100 µM (inactive) and the GI50 (UACC-62) is reported as > 100 µM (inactive). The GI50 (MOLT-4) was > 100 µM (inactive), the GI50 (HCT-15) was > 100 µM and the GI50 (CAKI-1) was > 100 µM (inactive). For the same compound, the GI50 (HOP-92) was > 100 µM (inactive), the GI50 (KM12) was > 100 µM (inactive) and the GI50 (UACC-257) was > 100 µM (inactive). The GI50 (OVCAR-5) was > 100 µM (inactive), the GI50 (SF-268) was > 100 µM (inactive) and the GI50 (SK-MEL-2) was > 100 µM (inactive). The GI50 (RPMI-8226) was > 100 µM (inactive), the GI50 (A498) was > 100 µM (inactive) and the GI50 (SF-295) was > 100 µM (inactive). For the same compound, the GI50 (IGROV-1) was > 100 µM (inactive) and the GI50 (NCI-H460) was > 100 µM (inactive).
With `C1=CC=C2NCCCCCCC/N=C3/C=CC=CC=C3NCCCCCCC/N=C\2C=C1` the GI50 (HCC 2998) was > 100 µM (inactive), the GI50 (HT-29) was 37.5 µM (inactive) and the GI50 (SNB-75) was 25.8 µM (inactive). The GI50 (UACC-62) was 10 µM (inactive), the GI50 (MOLT-4) was 31 µM (inactive) and the GI50 (HCT-15) was > 100 µM. For the same compound, the GI50 (CAKI-1) was > 100 µM (inactive), the GI50 (HOP-92) was 33.9 µM (inactive) and the GI50 (KM12) was > 100 µM (inactive). The GI50 (UACC-257) was > 100 µM (inactive), the GI50 (OVCAR-5) was > 100 µM (inactive) and the GI50 (SF-268) was > 100 µM (inactive). The GI50 (SK-MEL-2) was > 100 µM (inactive), the GI50 (RPMI-8226) was 35.9 µM (inactive) and the GI50 (SF-295) was 47.5 µM (inactive). The GI50 (HOP-62) was 10 µM (inactive), the GI50 (UO-31) was > 100 µM (inactive) and the GI50 (IGROV-1) was 10 µM (inactive). The GI50 (NCI-H460) was 25.4 µM (inactive).
In the case of `CN(C)CCCNC(=O)c1c(-c2cccnc2)cnc2ccccc12`, the GI50 (HCC 2998) is reported as > 100 µM (inactive), the GI50 (HT-29) is reported as > 100 µM (inactive) and the GI50 (SNB-75) is reported as 14.9 µM (inactive). For the same compound, the GI50 (UACC-62) was > 100 µM (inactive), the GI50 (MOLT-4) was > 100 µM (inactive) and the GI50 (HCT-15) was > 100 µM. The GI50 (CAKI-1) was > 100 µM (inactive), the GI50 (HOP-92) was > 100 µM (inactive) and the GI50 (KM12) was > 10 µM (inactive). The GI50 (UACC-257) was > 100 µM (inactive), the GI50 (OVCAR-5) was > 100 µM (inactive) and the GI50 (SF-268) was > 100 µM (inactive). The GI50 (SK-MEL-2) was > 100 µM (inactive), the GI50 (RPMI-8226) was > 100 µM (inactive) and the GI50 (SF-295) was > 100 µM (inactive). For the same compound, the GI50 (HOP-62) was > 100 µM (inactive), the GI50 (UO-31) was > 100 µM (inactive) and the GI50 (IGROV-1) was > 100 µM (inactive). For the same compound, the GI50 (NCI-H460) was > 100 µM (inactive).
With `CC(C)(CO)NC(=O)c1cccc(C(=O)NC(C)(C)CO)c1Br` the GI50 (HCC 2998) was > 100 µM (inactive), the GI50 (HT-29) was > 100 µM (inactive) and the GI50 (SNB-75) was 32.3 µM (inactive). The GI50 (UACC-62) was > 100 µM (inactive), the GI50 (MOLT-4) was > 100 µM (inactive) and the GI50 (HCT-15) was > 100 µM. The GI50 (CAKI-1) was > 100 µM (inactive), the GI50 (HOP-92) was > 100 µM (inactive) and the GI50 (KM12) was > 100 µM (inactive). For the same compound, the GI50 (UACC-257) was > 100 µM (inactive), the GI50 (OVCAR-5) was > 100 µM (inactive) and the GI50 (SF-268) was > 100 µM (inactive). For the same compound, the GI50 (SK-MEL-2) was > 100 µM (inactive), the GI50 (RPMI-8226) was > 100 µM (inactive) and the GI50 (HOP-62) was > 100 µM (inactive). For the same compound, the GI50 (UO-31) was > 100 µM (inactive), the GI50 (IGROV-1) was > 100 µM (inactive) and the GI50 (NCI-H460) was > 100 µM (inactive).
For `CSc1nc(NC2OC(CO)C(O)C(O)C2O)c(N)c(=O)n1C` (stereo not drawn), the GI50 (HCC 2998) was > 100 µM (inactive), the GI50 (HT-29) was > 100 µM (inactive) and the GI50 (SNB-75) was > 100 µM (inactive). The GI50 (UACC-62) was > 100 µM (inactive), the GI50 (MOLT-4) was > 100 µM (inactive) and the GI50 (HCT-15) was > 100 µM. For the same compound, the GI50 (HOP-92) was > 100 µM (inactive), the GI50 (KM12) was > 100 µM (inactive) and the GI50 (UACC-257) was > 100 µM (inactive). The GI50 (OVCAR-5) was > 100 µM (inactive), the GI50 (SF-268) was > 100 µM (inactive) and the GI50 (SK-MEL-2) was > 100 µM (inactive). The GI50 (RPMI-8226) was > 100 µM (inactive), the GI50 (A498) was > 100 µM (inactive) and the GI50 (SF-295) was > 100 µM (inactive). For the same compound, the GI50 (HOP-62) was > 100 µM (inactive), the GI50 (UO-31) was > 100 µM (inactive) and the GI50 (IGROV-1) was > 100 µM (inactive). The GI50 (NCI-H460) was > 100 µM (inactive).
